Results on five compounds are retold here after patent US8575382B2, “Low molecular weight pharmacological activity modulators” (“Ivy Pharm” LLC, priority 2009, dated 2013).

Several values for one entry are separate records, joined by “and”; a condition that tells them apart may be missing. Equal entries are not always repeated. Marks after values point to notes of the source that are not given here.

For assay [1], the system named is mice with hyperglycemia caused by glucose. The assay can be described thus: Glucose loading test, blood sugar level. Format: in vivo. The following applies: insulin 0.3 units/kg subcutaneously. The procedure:
the glucose loading test (reduction in the sugar content in animals with hyperglycemia, caused by administration of glucose when fasting); Blood was obtained after 1 h by caudal vein puncture and the serum glucose level was determined by the ortho-toluidine method. Experiments to study the effect of the test substances on the blood glucose level were carried out on white mice weighing 17-18 g. The animals were deprived of food from the evening prior to the experiment. […] Immediately after injecting the glucose, the experimental animals were injected subcutaneously with a reference preparation (insulin in a dose of 0.3 units/kg). […] The blood glucose level was determined over a period of 4 hours with intervals of 1 hour.

In a further assay the test system is male rats with cytopenia. Description: Hemostimulating activity: general blood analysis of rats with cyclophosphane cytopenia. The class given is in vivo. To be noted: for hemostimulating effect (in words): rats with cyclophosphane cytopenia, summary of Tables 5-7; for ESR / Erythrocytes / Leukocytes / Lymphoctes / Reticulocytes / Segmented neutrophils / Thrombocytes / Lymphocytes: rats, acetylcysteine 9.5, lithium carbonate 3, aC-Li 10, Cu-aC-Li:aC-Li 10 mg/kg. The procedure: The study was carried out on random-bred male white rats weighing 140-160 g, which were given a single subcutaneous injection of cyclophosphane in a dose of 100 mg/kg in physiological saline.
No. 3—animals which had received an injection of cyclophosphane and to which Cu-aC-Li:aC-Li in physiological saline was then administered in a dose of 10 mg/kg as a therapeutic means (amount of coordination compound 7.8×10^−8 M/kg);
No. 4—animals which had received an injection of cyclophosphane and to which aC-Li in physiological saline was then administered in a dose of 10 mg/kg as a therapeutic means;
No. 6—animals which had received an injection of cyclophosphane and to which acetylcysteine in physiological saline was then administered in a dose of 9.5 mg/kg as a therapeutic means (the amount of acetylcysteine was calculated on the basis of the proportion by weight of acetylcysteine (˜0.95) in 10 mg of […], which corresponds to 9.5 mg of the hydrogenated form of acetylcysteine).
The test preparations were administered on the third day after the administration of cyclophosphane.
Blood for hematological investigations was taken from the caudal vein 3, 7 and 14 days after administration of CP. At the end of each series (3, 7 and 14 days), the experimental animals were euthanized by an overdose of ether and blood was obtained from the caudal vein and bone marrow from the femur.
This study assessed the cellularity of the blood (the number of erythrocytes, thrombocytes, leukocytes, lymphocytes and neutrophils, and also the ESR) and bone marrow on 7-day administration of the test compounds to hemodepressed animals.

The test system of assay [2] is A431 line human epidermoid carcinoma cells. The assay can be described thus: Proliferative activity and death of A431 cells (cell count, propidium iodide flow cytofluorimetry). To be noted: for Proportion of dead cells / Total cells: A431, EGF 200 ng/ml. Format: cell-based. The procedure: The number of living and dead cells in a culture was determined after 24 and 48 hours.
A431 line human epidermoid carcinoma cells, obtained from the All-Russian Cell Culture Collection (Russian Academy of Sciences Institute of Cytology, St. Petersburg).
Cells are cultured in a CO2 incubator (New Brunswick Scientific) at +37° C. and with a CO2 content of 5%. Cells are grown in these conditions to a monolayer culture and are exposed to the action of the test compounds.
The DMEM medium (OOO PanEko, Moscow) with the addition of gentamicin K (80 mg/l), L-glutamine (300 mg/l) and fetal serum (PAA, Austria) to a final concentration of 10%, is used for culturing cells. Cells are transferred to a medium with a reduced serum content of 0.5% 24 hours before commencing an experiment.
The cells were then suspended by pipetting with an automatic pipette and were combined with the previously collected medium. Samples were centrifuged at room temperature for 5 min at 400 g, the supernatant was removed and the deposit was resuspended in pH 7.4 PBS phosphate-salt buffer.
Propidium iodide was added to a suspension of cells to a concentration of 50 μg/ml 5-10 min before measuring in a Bruker ACR 1000 flow cytofluorimeter. This stain is able to penetrate through a damaged cell membrane, and stained cells are dead.

Where [3] appears, read: day 3 after cyclophosphane 100 mg/kg.
[4] abbreviates: day 14 after cyclophosphane 100 mg/kg.
Where [5] appears, read: day 7 after cyclophosphane 100 mg/kg.
Where [6] appears, read: Table 2, age of culture 24 hours, cysteine […], C—Pd […], C—Pd:C […].
Where [7] appears, read: Table 2, age of culture 48 hours, cysteine […], C—Pd […], C—Pd:C […].

Take Insulin: reference preparation: the Blood sugar level in assay [1] (1 hour) worked out at 1.2 ± 0.1 mmol/L; in assay [1] (2 hours) it was 1.4 ± 0.1 mmol/L; in assay [1] (3 hours), 1.6 ± 0.2 mmol/L; in assay [1] (4 hours), 2.0 ± 0.1 mmol/L.
As for `CC(=O)N[C@@H](CS)C(=O)[O-].[Li+]` [aC—Li, lithium salt of acetylcysteine], in the assay with male rats with cytopenia, the “hemostimulating effect (in words)” value is recorded as “positive trends”. In addition, in the assay with male rats with cytopenia (setting [3]), the ESR is given as 3.3 ± 0.80 mm/h, the Erythrocytes is 4.0 ± 0.23 10^12/l, the Leukocytes is given as 4.38 ± 0.31* 10^9/l and the Lymphoctes amounted to 45 ± 1.6 %. In the assay on male rats with cytopenia (setting [3]), the Reticulocytes is reported as 0.1 ± 0.1 %, the Segmented neutrophils worked out at 42 ± 1.6 % and the Thrombocytes is recorded as 387 ± 17.4 10^9/l. In the assay on male rats with cytopenia (setting [4]), the ESR amounted to 2.7 ± 0.49 mm/h, the Erythrocytes is given as 5.2 ± 0.26 10^12/l, the Leukocytes is listed as 5.6 ± 0.22** 10^9/l and the Lymphocytes is given as 72.5 ± 1.4%. Besides, in the assay with male rats with cytopenia (setting [4]), the Reticulocytes is on record as 1.3 ± 0.3%, the Segmented neutrophils is 20.3 ± 2.4 % and the Thrombocytes is 390 ± 38.3 10^3/l.
On to `O=C([O-])[O-].[Li+].[Li+]` [Li2HCO3, lithium carbonate], for which the “hemostimulating effect (in words)” value with male rats with cytopenia is given as “positive trends”. In the assay on male rats with cytopenia (setting [3]), the ESR came out at 2.4 ± 0.42 mm/h, the Erythrocytes was 3.7 ± 0.21 10^12/l, the Leukocytes is on record as 3.75 ± 0.46* 10^9/l and the Lymphoctes is on record as 62 ± 3.8 %. In the assay with male rats with cytopenia (setting [3]), the Reticulocytes is listed as 0.118 ± 0.01 %, the Segmented neutrophils is recorded as 19.7 ± 3.4 % and the Thrombocytes is given as 256 ± 45.3 10^9/l. In addition, in the assay with male rats with cytopenia (setting [5]), the ESR is 2.0 ± 0.36 mm/h and 3.2 ± 0.80 mm/h; the Erythrocytes is 3.6 ± 0.29 10^12/l and 3.2 ± 0.18 10^12/l; the Leukocytes was 3.22 ± 0.11* 10^9/l and 4.8 ± 0.18** 10^9/l; the Reticulocytes was 1.1 ± 0.1% and 1.2 ± 0.2%. Moreover, in the assay on male rats with cytopenia (setting [5]), the Segmented neutrophils was 33 ± 1.7 % and 50.4 ± 0.6 %; the Thrombocytes is 119 ± 12.0** 10^3/l and 164 ± 10.0** 10^3/l. Also, in the assay on male rats with cytopenia (setting [4]), the ESR came to 2.4 ± 0.65 mm/h, the Erythrocytes is 4.9 ± 0.27 10^12/l, the Leukocytes was 5.9 ± 0.26** 10^9/l and the Lymphocytes worked out at 69.3 ± 0.9%. In addition, in the assay with male rats with cytopenia (setting [4]), the Reticulocytes was 1.4 ± 0.3%, the Segmented neutrophils came out at 14.9 ± 2.6 % and the Thrombocytes is 401 ± 59.9 10^3/l.
Consider “Epidermal growth factor: physiological high-affinity ligand of the EGF receptor”, for which the “Proportion of dead cells” value came to 19% in assay [2] (setting [6]); 23% in assay [2] (setting [7]); 22% in assay [2] (Table 3, 24 hours); 29% in assay [2] (Table 3, 48 hours). The Total cells in assay [2] (setting [6]) came out at 47300 mL⁻¹; in assay [2] (setting [7]), 68800 mL⁻¹; in assay [2] (Table 3, 24 hours), 52000 mL⁻¹; in assay [2] (Table 3, 48 hours) it was 71700 mL⁻¹. Further, the “effect on the proliferative activity of A431 cells (in words)” value in assay [2] (summary of Table 2) is recorded as “maximum stimulating effect”.
As to `CC(=O)N[C@@H](CS)C(=O)O` [acetyl cysteine, acetylcysteine], the “hemostimulating effect (in words)” value in the assay on male rats with cytopenia is recorded as “positive trends”. Also, in the assay with male rats with cytopenia (setting [3]), the ESR was 2.2 ± 0.30 mm/h, the Erythrocytes was 3.0 ± 0.29 10^12/l, the Leukocytes was 3.26 ± 0.31* 10^9/l and the Lymphoctes is recorded as 68 ± 2.8 %. In addition, in the assay with male rats with cytopenia (setting [3]), the Reticulocytes was 0.09 ± 0.006 %, the Segmented neutrophils worked out at 17.6 ± 2.1 % and the Thrombocytes is 220 ± 45.3 10^9/l. For the same compound, in the assay with male rats with cytopenia (setting [5]), the ESR is given as 1.9 ± 0.39 mm/h, the Erythrocytes is reported as 3.1 ± 0.33 10^12/l, the Leukocytes is 3.47 ± 0.08* 10^9/l and the Lymphocytes came to 51.5 ± 1.3 %. In addition, in the assay with male rats with cytopenia (setting [5]), the Segmented neutrophils is listed as 30 ± 1.8 % and the Thrombocytes is 124 ± 11 10^9/L. In the assay on male rats with cytopenia (setting [4]), the ESR worked out at 2.1 ± 0.73 mm/h, the Erythrocytes was 4.7 ± 0.21 10^12/l, the Leukocytes was 5.7 ± 0.22** 10^9/l and the Lymphocytes amounted to 72.1 ± 1.6%. In the assay on male rats with cytopenia (setting [4]), this compound gave a Reticulocytes of 1.1 ± 0.4% and a Segmented neutrophils of 13.3 ± 1.9 %.
